From ChEMBL document CHEMBL5244280, “Evodiamine Lowers Blood Lipids by Up-Regulating the PPARγ/ABCG1 Pathway in High-Fat-Diet-Fed Mice” (J Nat Prod, 2021)
Activity calls are given as the source filed them. No cut-off for these calls is given here.

Tests used:
Mus musculus [1] = assay: Protection against hyperlipidemia in high fat diet-fed hyperlipidemic ICR mouse model assessed as reduction in serum triglyceride content at 10 mg/kg, ig administered daily via gavage for 8 weeks by spectrophotometric analysis; assay type: functional; details: po, 1344 h
Mus musculus [2] = assay: Protection against hyperlipidemia in high fat diet-fed hyperlipidemic ICR mouse model assessed as reduction in serum total cholesterol content at 10 mg/kg, ig administered daily via gavage for 8 weeks by spectrophotometric analysis; assay type: functional; details: po, 1344 h
Mus musculus [3] = assay: Protection against hyperlipidemia in high fat diet-fed hyperlipidemic ICR mouse model assessed as serum HDL-C content at 10 mg/kg, ig administered daily via gavage for 8 weeks by spectrophotometric analysis; assay type: functional, organism-based
[4] = Toxicity against normal diet-fed ICR mouse assessed as effect on plasma triglyceride content at 10 mg/kg, ig administered daily via gavage for 8 weeks by spectrophotometric analysis; assay type: organism-based; details: in vivo, po, 1344 h
[5] = Toxicity against normal diet-fed ICR mouse assessed as effect on plasma LDL-C content at 10 mg/kg, ig administered daily via gavage for 8 weeks by spectrophotometric analysis; assay type: organism-based; details: in vivo, po, 1344 h
Mus musculus [6] = assay: Protection against hyperlipidemia in high fat diet-fed hyperlipidemic ICR mouse model assessed as reduction in serum triglyceride content at 20 mg/kg, ig administered daily via gavage for 8 weeks by spectrophotometric analysis; assay type: functional, organism-based
Mus musculus [7] = assay: Protection against hyperlipidemia in high fat diet-fed hyperlipidemic ICR mouse model assessed as reduction in serum LDL-C content at 20 mg/kg, ig administered daily via gavage for 8 weeks by spectrophotometric analysis; assay type: functional, organism-based
[8] = Toxicity in normal diet fed ICR mouse assessed as ratio of lung weight to body weight at 10 mg/kg, ig administered daily via gavage for 8 weeks (reference value: 0.83 +/-0.32); assay type: organism-based; details: in vivo, po, 1344 h
[9] = Toxicity in normal diet fed ICR mouse assessed as ratio of stomach weight to body weight at 10 mg/kg, ig administered daily via gavage for 8 weeks (reference value: 1.24 +/-0.41); assay type: organism-based; details: in vivo, po, 1344 h
[10] = Toxicity in high fat diet fed hyperlipidemic ICR mouse model assessed as ratio of lung weight to body weight at 10 mg/kg, ig administered daily via gavage for 8 weeks (reference value: 0.93 +/-0.28); assay type: organism-based; details: in vivo, po, 1344 h
[11] = Toxicity in high fat diet fed hyperlipidemic ICR mouse model assessed as ratio of spleen weight to body weight at 10 mg/kg, ig administered daily via gavage for 8 weeks (reference value: 0.43 +/-0.11); assay type: organism-based; details: in vivo, po, 1344 h
[12] = Toxicity in high fat diet fed hyperlipidemic ICR mouse model assessed as ratio of stomach weight to body weight at 10 mg/kg, ig administered daily via gavage for 8 weeks (reference value: 1.41 +/-0.34); assay type: organism-based; details: in vivo, po, 1344 h
Mus musculus [13] = assay: Protection against hyperlipidemia in high fat diet-fed hyperlipidemic ICR mouse model assessed as normal and less pale colored liver at 10 to 20 mg/kg, ig administered daily via gavage for 8 weeks; assay type: functional, organism-based; details: dose 10-20 mg/kg
Mus musculus [14] = assay: Protection against hyperlipidemia in high fat diet-fed hyperlipidemic ICR mouse model assessed as reduction in vacuolar degeneration of hepatocytes at 10 mg/kg, ig administered daily via gavage for 8 weeks by Hematoxylin-eosin staining based analysis; assay type: functional, organism-based
Mus musculus [15] = assay: Protection against hyperlipidemia in high fat diet-fed hyperlipidemic ICR mouse model assessed as reduction in hepatic total cholesterol content at 10 mg/kg, ig administered daily via gavage for 8 weeks by colorimetric assay; assay type: functional; details: po, 1344 h
[16] = Toxicity in normal diet fed ICR mouse assessed as liver histological changes at 10 mg/kg, ig administered daily via gavage for 8 weeks by Hematoxylin and eosin staining based analysis; assay type: organism-based; details: in vivo, po, 1344 h
Mus musculus [17] = assay: Upregulation of SR-B1 protein expression in liver of high fat diet fed hyperlipidemic ICR mouse model at 10 mg/kg, ig administered daily via gavage for 8 weeks by western blotting analysis; assay type: functional, organism-based
Mus musculus [18] = assay: Upregulation of ABCG5 protein expression in liver of high fat diet fed hyperlipidemic ICR mouse model at 10 mg/kg, ig administered daily via gavage for 8 weeks by western blotting analysis; assay type: functional, organism-based
Mus musculus [19] = assay: Upregulation of ABCG1 mRNA expression in liver of high fat diet fed hyperlipidemic ICR mouse model at 10 mg/kg, ig administered daily via gavage for 8 weeks by qPCR analysis relative to control; assay type: functional
Mus musculus [20] = assay: Upregulation of ABCA1 mRNA expression in liver of high fat diet fed hyperlipidemic ICR mouse model at 10 mg/kg, ig administered daily via gavage for 8 weeks by qPCR analysis; assay type: functional, organism-based
Mus musculus [21] = assay: Downregulation of ABCG8 mRNA expression in liver of high fat diet fed hyperlipidemic ICR mouse model at 10 mg/kg, ig administered daily via gavage for 8 weeks by qPCR analysis; assay type: functional, organism-based
Mus musculus [22] = assay: Upregulation of PPAR-gamma protein expression in liver of high fat diet fed hyperlipidemic ICR mouse model at 10 to 20 mg/kg, ig administered daily via gavage for 8 weeks by western blotting analysis; assay type: functional, organism-based; details: dose 10-20 mg/kg
Mus musculus [23] = assay: Upregulation of PPAR-gamma mRNA expression in liver of high fat diet fed hyperlipidemic ICR mouse model at 10 to 20 mg/kg, ig administered daily via gavage for 8 weeks by qPCR analysis; assay type: functional, organism-based; details: dose 10-20 mg/kg
[24] = biological target: T1, Peroxisome proliferator-activated receptor gamma (Homo sapiens) (UniProt P37231); assay: Agonist activity at human PPAR-gamma expressed in HEK293 cells co-transfected with luciferase reporter plasmid assessed as receptor transactivation at 10 uM incubated for 18 hrs by luciferase reporter gene assay relative to control; assay type: cell-based
T1 sequence (whole entry): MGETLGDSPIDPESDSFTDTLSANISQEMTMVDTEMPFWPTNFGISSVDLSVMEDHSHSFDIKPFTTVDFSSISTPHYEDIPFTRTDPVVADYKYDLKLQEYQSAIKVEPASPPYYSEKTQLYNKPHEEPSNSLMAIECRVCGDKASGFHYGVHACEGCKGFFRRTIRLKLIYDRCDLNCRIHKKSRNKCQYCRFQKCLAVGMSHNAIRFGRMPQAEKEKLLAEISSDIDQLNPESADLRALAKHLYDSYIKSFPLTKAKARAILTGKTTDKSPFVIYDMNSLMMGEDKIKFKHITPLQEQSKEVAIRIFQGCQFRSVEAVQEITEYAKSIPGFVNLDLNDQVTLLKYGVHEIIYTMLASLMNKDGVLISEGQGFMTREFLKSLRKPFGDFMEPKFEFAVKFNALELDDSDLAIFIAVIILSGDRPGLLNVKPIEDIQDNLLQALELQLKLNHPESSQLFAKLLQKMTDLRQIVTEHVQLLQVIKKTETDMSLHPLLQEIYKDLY

HEK293 = assay: Agonist activity at human PPAR-beta expressed in HEK293 cells co-transfected with luciferase reporter plasmid assessed as receptor transactivation at 10 uM incubated for 18 hrs by luciferase reporter gene assay relative to control; assay type: cell-based
Mus musculus [25] = assay: Protection against hyperlipidemia in high fat diet-fed hyperlipidemic ICR mouse model assessed as reduction in hepatic triglyceride content at 20 mg/kg, ig administered daily via gavage for 8 weeks by colorimetric assay; assay type: functional, organism-based
Mus musculus [26] = assay: Protection against hyperlipidemia in high fat diet-fed hyperlipidemic ICR mouse model assessed as reduction in hepatic total cholesterol content at 20 mg/kg, ig administered daily via gavage for 8 weeks by colorimetric assay; assay type: functional, organism-based

fold change (FC) [24]: 0.49
SMILES: CN1c2ccccc2C(=O)N2CCc3c([nH]c4ccccc34)C21 (configuration not stated)
inhibition in vivo at 10 mg/kg (Mus musculus [1]): 34%
inhibition in vivo at 10 mg/kg (Mus musculus [2]): 50%
Activity (Mus musculus [3]): inactive
Activity [4]: Non-Toxic
Activity [5]: Non-Toxic
Activity (Mus musculus [6]): Active
Activity (Mus musculus [7]): Active
Ratio [8]: 0.78
Ratio [9]: 1.48
Ratio [10]: 0.81
Ratio [11]: 0.37
Ratio [12]: 1.22
Activity (Mus musculus [13]): Active
Activity (Mus musculus [14]): Active
inhibition in vivo at 10 mg/kg (Mus musculus [15]): 42.3%
Activity [16]: Non-Toxic
Activity (Mus musculus [17]): Active
Activity (Mus musculus [18]): inactive
fold change (FC) (Mus musculus [19]): 3.6
Activity (Mus musculus [20]): inactive
inhibition (Mus musculus [21]): Active
Activity (Mus musculus [22]): Active
Activity (Mus musculus [23]): Active
fold change (FC) (HEK293): 1.53
Activity (Mus musculus [25]): Active
Activity (Mus musculus [26]): Active
